The numbers were not newly measured in US20230002726A1, “METHODS OF IN-OVO SCREENING OF ANTI-CANCER THERAPIES” (ICHILOV TECH LTD., priority 2020, published 2023), which cites them from elsewhere.

The subject of the series is MSI-low tumors. As to conditions: stated as known; cited from earlier work.

Take Pembrolizumab [Keytruda]: the known effectiveness entry is “ineffective”.
